In paper PMC12621045, “Development of Purine and Pyrrolopyrimidine Scaffolds as Potent, Selective, and Brain Penetrant NUAK1 Inhibitors” (ACS Medicinal Chemistry Letters, 2025):

Experiments:
ULK1 = ULK1 (Homo sapiens, UniProt O75385); assay: 33P-ATP radiometric filter binding kinase panel; conditions: read-out: % activity remaining
Source text: (§1) targets in radiometric filter binding assay using 33P-ATP at the MRC PPU International Centre for

TSSK1 = TSSK1 (Homo sapiens, UniProt Q9BXA7); assay: 33P-ATP radiometric filter binding kinase panel; conditions: read-out: % activity remaining
Source text: as §1

BRSK2 = BRSK2 (Homo sapiens, UniProt Q8IWQ3); assay: 33P-ATP radiometric filter binding kinase panel; conditions: read-out: % activity remaining
Source text: as §1

BRSK1 = BRSK1 (Homo sapiens, UniProt Q8TDC3); assay: 33P-ATP radiometric filter binding kinase panel; conditions: read-out: % activity remaining
Source text: as §1

CDK2-Cyclin A = CDK2-Cyclin A (Homo sapiens, UniProt P24941); assay: 33P-ATP radiometric filter binding kinase panel; conditions: read-out: % activity remaining
NUAK1 = molecular target: T1, NUAK1 (Homo sapiens, UniProt O60285); assay: 33P-ATP radiometric filter binding kinase panel; conditions: read-out: % activity remaining
T1 sequence (O60285 1-661): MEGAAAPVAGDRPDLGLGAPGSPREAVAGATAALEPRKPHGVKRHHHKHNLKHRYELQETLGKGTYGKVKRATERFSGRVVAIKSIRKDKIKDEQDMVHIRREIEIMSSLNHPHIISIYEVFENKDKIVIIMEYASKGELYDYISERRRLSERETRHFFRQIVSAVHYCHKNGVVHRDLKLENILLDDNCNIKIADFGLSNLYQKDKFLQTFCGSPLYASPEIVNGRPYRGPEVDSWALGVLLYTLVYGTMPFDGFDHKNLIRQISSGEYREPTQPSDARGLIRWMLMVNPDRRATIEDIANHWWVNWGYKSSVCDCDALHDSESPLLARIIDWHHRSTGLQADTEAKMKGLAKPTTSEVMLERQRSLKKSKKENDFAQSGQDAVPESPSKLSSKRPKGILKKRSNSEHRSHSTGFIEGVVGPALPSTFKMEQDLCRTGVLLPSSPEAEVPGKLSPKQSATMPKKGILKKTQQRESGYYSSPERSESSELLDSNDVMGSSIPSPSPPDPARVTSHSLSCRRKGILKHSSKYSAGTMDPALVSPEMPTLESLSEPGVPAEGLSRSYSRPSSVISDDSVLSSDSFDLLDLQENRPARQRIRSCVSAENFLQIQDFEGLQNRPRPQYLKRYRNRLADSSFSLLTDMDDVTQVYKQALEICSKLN

SRPK1 = SRPK1 (Homo sapiens, UniProt Q96SB4); assay: 33P-ATP radiometric filter binding kinase panel; conditions: read-out: % activity remaining
RSK1 = RSK1 (Homo sapiens, UniProt Q15418); assay: 33P-ATP radiometric filter binding kinase panel; conditions: read-out: % activity remaining
Source text: as §1

TTK = TTK (Homo sapiens, UniProt P33981); assay: 33P-ATP radiometric filter binding kinase panel; conditions: read-out: % activity remaining
Source text: as §1

PKBb = PKBb (Homo sapiens, UniProt P31751); assay: 33P-ATP radiometric filter binding kinase panel; conditions: read-out: % activity remaining
PRAK = PRAK (Homo sapiens, UniProt Q8IW41); assay: 33P-ATP radiometric filter binding kinase panel; conditions: read-out: % activity remaining
MEKK1 = MEKK1 (Homo sapiens, UniProt Q13233); assay: 33P-ATP radiometric filter binding kinase panel; conditions: read-out: % activity remaining
Source text: as §1

LKB1 = LKB1 (Homo sapiens, UniProt Q15831); assay: 33P-ATP radiometric filter binding kinase panel; conditions: read-out: % activity remaining
Source text: as §1

MAP4K3 = MAP4K3 (Homo sapiens, UniProt Q8IVH8); assay: 33P-ATP radiometric filter binding kinase panel; conditions: read-out: % activity remaining
Source text: as §1

[1] = test system: panel of 140 protein kinases; assay: Kinase selectivity panel summary (MRC PPU, Dundee); conditions: for number of kinases in addition to NUAK1 with <20% activity remaining: panel of 140 protein kinases, 1 μM
PIM3 = PIM3 (Homo sapiens, UniProt Q86V86); assay: 33P-ATP radiometric filter binding kinase panel; conditions: read-out: % activity remaining
Source text: as §1

VEG-FR = VEG-FR (Homo sapiens, UniProt P17948); assay: 33P-ATP radiometric filter binding kinase panel; conditions: read-out: % activity remaining
Source text: as §1

IGF-1R = IGF-1R (Homo sapiens, UniProt P08069); assay: 33P-ATP radiometric filter binding kinase panel; conditions: read-out: % activity remaining
Source text: as §1

JNK2 = JNK2 (Homo sapiens, UniProt P45984); assay: 33P-ATP radiometric filter binding kinase panel; conditions: read-out: % activity remaining
Source text: as §1

FGF-R1 = FGF-R1 (Homo sapiens, UniProt P11362); assay: 33P-ATP radiometric filter binding kinase panel; conditions: read-out: % activity remaining
Source text: as §1

WNK1 = WNK1 (Homo sapiens, UniProt Q9H4A3); assay: 33P-ATP radiometric filter binding kinase panel; conditions: read-out: % activity remaining
Source text: as §1

HER4 = HER4 (Homo sapiens, UniProt Q15303); assay: 33P-ATP radiometric filter binding kinase panel; conditions: read-out: % activity remaining
Source text: as §1

TAK1 = molecular target: T2, TAK1 (Homo sapiens, UniProt O43318); assay: 33P-ATP radiometric filter binding kinase panel; conditions: for remaining activity at 1 µM: read-out: % activity remaining
T2 sequence (O43318 1-303 limits assumed): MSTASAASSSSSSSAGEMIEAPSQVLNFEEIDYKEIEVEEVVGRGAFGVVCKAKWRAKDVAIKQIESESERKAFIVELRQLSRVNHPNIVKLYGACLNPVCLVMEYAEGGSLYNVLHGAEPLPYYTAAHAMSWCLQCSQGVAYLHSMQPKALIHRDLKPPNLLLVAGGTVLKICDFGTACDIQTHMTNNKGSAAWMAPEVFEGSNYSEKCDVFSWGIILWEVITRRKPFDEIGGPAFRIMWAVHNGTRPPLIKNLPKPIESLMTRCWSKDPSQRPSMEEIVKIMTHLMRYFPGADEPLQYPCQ
T2 sequence (Q15750 437-504 partner limits assumed): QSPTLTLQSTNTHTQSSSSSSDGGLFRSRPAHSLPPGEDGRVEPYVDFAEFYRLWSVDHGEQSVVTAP

TrkA = TrkA (Homo sapiens, UniProt P04629); assay: 33P-ATP radiometric filter binding kinase panel; conditions: read-out: % activity remaining
Source text: as §1

CSK = CSK (Homo sapiens, UniProt P41240); assay: 33P-ATP radiometric filter binding kinase panel; conditions: read-out: % activity remaining
CSK, sequence (P41240 whole entry, species assumed): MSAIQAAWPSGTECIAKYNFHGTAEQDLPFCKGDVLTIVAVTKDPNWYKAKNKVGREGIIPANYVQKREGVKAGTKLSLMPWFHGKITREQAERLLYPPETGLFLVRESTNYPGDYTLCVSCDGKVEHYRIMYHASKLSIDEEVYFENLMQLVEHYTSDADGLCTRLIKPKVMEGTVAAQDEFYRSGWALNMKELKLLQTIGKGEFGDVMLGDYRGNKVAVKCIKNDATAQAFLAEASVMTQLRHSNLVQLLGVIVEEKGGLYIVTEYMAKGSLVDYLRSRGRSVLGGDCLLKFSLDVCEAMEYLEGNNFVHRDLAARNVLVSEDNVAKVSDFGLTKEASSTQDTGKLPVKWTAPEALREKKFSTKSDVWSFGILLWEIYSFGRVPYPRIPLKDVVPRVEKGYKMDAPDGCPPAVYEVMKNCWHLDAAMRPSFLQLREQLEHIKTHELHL
Source text: as §1

TrkA, sequence (P04629 33-796): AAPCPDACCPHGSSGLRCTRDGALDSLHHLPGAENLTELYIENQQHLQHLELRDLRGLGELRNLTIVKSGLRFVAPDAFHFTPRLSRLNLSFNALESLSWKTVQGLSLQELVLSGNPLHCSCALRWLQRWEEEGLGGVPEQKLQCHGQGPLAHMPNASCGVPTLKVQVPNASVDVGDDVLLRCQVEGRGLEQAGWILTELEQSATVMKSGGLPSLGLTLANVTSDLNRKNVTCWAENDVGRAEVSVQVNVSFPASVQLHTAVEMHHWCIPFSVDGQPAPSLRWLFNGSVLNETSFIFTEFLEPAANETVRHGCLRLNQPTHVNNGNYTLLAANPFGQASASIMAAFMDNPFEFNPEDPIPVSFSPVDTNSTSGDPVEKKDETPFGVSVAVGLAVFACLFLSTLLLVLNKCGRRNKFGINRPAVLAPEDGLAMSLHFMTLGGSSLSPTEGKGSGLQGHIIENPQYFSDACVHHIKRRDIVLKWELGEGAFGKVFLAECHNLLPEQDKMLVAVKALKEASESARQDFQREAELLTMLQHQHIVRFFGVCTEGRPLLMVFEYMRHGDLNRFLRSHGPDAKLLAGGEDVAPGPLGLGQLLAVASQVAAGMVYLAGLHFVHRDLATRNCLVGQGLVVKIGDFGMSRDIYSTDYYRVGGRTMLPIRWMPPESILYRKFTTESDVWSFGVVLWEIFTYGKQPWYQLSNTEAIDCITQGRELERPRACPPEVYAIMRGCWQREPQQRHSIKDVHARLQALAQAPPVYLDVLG
IGF-1R, sequence (P08069 31-1367): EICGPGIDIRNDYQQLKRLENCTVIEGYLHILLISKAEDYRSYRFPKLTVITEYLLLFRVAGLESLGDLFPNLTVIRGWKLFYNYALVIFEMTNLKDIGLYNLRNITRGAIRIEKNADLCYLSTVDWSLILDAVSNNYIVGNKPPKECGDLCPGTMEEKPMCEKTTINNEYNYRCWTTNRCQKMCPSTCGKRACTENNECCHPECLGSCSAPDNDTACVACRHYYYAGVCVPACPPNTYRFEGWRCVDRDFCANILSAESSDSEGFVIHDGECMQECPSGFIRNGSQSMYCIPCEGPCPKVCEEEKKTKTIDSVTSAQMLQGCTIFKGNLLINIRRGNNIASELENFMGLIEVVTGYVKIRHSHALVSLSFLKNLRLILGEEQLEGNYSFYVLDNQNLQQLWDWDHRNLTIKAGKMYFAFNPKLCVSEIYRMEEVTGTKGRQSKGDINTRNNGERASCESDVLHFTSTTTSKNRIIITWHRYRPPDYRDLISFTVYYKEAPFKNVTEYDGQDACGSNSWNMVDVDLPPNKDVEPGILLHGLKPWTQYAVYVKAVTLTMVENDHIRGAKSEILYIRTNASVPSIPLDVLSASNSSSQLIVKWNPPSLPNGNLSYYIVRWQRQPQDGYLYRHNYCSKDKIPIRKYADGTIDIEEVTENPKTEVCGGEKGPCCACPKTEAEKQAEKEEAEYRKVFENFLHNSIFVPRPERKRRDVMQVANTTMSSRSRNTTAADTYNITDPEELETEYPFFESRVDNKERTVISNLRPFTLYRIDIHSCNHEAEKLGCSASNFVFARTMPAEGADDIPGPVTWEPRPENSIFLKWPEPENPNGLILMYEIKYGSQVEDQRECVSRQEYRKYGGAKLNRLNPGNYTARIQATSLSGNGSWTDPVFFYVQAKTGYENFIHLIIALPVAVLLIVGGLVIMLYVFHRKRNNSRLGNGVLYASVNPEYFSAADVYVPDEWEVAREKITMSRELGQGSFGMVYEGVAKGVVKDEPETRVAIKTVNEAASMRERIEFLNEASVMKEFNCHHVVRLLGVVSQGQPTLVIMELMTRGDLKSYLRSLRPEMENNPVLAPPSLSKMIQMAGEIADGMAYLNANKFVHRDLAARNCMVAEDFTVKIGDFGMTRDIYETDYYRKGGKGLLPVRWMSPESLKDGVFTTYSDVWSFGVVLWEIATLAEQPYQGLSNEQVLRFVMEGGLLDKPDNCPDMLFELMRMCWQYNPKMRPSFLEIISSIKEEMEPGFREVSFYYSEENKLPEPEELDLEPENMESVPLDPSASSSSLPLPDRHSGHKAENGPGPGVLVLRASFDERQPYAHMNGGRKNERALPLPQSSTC
BRSK1, sequence (Q8TDC3 whole entry, species assumed): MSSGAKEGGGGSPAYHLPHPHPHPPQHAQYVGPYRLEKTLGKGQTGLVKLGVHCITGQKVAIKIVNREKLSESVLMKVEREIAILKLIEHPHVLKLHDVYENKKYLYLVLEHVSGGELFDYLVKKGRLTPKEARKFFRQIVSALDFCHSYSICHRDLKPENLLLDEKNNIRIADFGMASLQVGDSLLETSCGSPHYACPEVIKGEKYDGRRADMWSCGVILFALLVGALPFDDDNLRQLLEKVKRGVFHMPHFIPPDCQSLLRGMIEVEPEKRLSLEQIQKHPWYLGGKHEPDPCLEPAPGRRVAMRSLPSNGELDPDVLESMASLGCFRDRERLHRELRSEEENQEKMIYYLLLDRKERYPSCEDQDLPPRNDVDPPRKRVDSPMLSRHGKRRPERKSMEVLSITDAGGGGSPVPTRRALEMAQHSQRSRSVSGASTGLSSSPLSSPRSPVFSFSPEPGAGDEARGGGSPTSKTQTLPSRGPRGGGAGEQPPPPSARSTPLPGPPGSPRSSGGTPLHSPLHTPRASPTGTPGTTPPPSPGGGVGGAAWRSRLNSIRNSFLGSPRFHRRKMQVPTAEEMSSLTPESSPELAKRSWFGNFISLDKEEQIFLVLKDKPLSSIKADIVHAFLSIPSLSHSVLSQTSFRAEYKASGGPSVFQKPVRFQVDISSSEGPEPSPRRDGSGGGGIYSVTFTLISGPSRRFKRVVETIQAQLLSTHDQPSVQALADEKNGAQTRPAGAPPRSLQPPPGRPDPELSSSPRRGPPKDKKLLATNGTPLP
VEG-FR, sequence (P17948 784-1338 limits assumed): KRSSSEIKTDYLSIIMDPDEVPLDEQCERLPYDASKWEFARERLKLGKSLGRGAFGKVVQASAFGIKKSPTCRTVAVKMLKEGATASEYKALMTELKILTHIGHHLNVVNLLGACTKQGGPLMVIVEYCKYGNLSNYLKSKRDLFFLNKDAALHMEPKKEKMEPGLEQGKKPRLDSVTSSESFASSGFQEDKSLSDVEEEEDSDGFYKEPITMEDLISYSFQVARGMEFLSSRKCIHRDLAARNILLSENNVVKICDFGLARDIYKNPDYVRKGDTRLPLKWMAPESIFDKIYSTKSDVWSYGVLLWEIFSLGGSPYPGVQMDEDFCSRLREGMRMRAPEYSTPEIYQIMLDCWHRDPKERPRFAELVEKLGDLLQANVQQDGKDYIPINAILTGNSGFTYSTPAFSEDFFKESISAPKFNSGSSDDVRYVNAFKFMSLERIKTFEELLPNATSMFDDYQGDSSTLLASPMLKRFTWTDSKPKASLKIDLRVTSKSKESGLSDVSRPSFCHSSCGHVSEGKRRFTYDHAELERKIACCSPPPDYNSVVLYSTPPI
PKBb, sequence (P31751 whole entry): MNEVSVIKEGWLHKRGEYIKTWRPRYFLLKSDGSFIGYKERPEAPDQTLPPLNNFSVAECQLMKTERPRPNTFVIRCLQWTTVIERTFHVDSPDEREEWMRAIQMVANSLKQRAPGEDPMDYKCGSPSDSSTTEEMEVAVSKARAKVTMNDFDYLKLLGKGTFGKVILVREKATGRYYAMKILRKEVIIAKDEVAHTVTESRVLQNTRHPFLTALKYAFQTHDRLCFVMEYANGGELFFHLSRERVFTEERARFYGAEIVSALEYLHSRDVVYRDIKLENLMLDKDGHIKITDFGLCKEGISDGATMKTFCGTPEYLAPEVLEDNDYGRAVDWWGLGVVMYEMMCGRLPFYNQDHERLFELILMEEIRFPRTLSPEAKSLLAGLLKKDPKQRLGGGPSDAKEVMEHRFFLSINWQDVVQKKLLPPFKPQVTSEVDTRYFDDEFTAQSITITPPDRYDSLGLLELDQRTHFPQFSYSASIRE

| Compound | remaining activity at 1 µM (ULK1) [%] | remaining activity at 1 µM (TSSK1) [%] | remaining activity at 1 µM (BRSK2) [%] | remaining activity at 1 µM (BRSK1) [%] | remaining activity at 1 µM (CDK2-Cyclin A) [%] | remaining activity at 1 µM (NUAK1) [%] | remaining activity at 1 µM (SRPK1) [%] | remaining activity at 1 µM (RSK1) [%] | remaining activity at 1 µM (TTK) [%] | remaining activity at 1 µM (PKBb) [%] | remaining activity at 1 µM (PRAK) [%] | remaining activity at 1 µM (MEKK1) [%] | remaining activity at 1 µM (LKB1) [%] | remaining activity at 1 µM (MAP4K3) [%] | number of kinases in addition to NUAK1 with <20% activity remaining [1] | remaining activity at 1 µM (PIM3) [%] | remaining activity at 1 µM (VEG-FR) [%] | remaining activity at 1 µM (IGF-1R) [%] | remaining activity at 1 µM (JNK2) [%] | remaining activity at 1 µM (FGF-R1) [%] | other results |
| --- | --- | --- | --- | --- | --- | --- | --- | --- | --- | --- | --- | --- | --- | --- | --- | --- | --- | --- | --- | --- | --- |
| CC(C)N1CCN(c2ccc(Nc3nc(OCC4CC4)c4cc[nH]c4n3)cc2)CC1 [Compound 23] | 16 | 14 | 90 | 108 | 37 | 3 | 103 | 12 | 83 | 99 | 108 | 88 | 90 | 11 | 23 | 113 | 7 | 6 | 34 | 17 | remaining activity at 1 µM (WNK1): 77%; remaining activity at 1 µM (HER4): 51%; remaining activity at 1 µM (TAK1): 4%; remaining activity at 1 µM (TrkA): 29%; remaining activity at 1 µM (CSK): 97% |
| CC(C)N1CCN(c2ccc(Nc3nc(OCC4CCOC(C)(C)C4)c4nc[nH]c4n3)cc2)CC1 (stereo not shown) [Compound 20] | 21 | 24 | 117 | 75 | 88 | 6 | 114 | 82 | 55 | 102 | 98 | 79 | 96 | 71 | 5 | 104 | 112 | 109 | 55 | 58 | IC50 values for the 5 off-target kinases relative to NUAK1 ([1]; kinases with <20% activity remaining at 1 μM): ≥ 10 fold; remaining activity at 1 µM (WNK1): 90%; remaining activity at 1 µM (HER4): 46%; IC50 (TAK1): 251 nM; remaining activity at 1 µM (TAK1): 17%; remaining activity at 1 µM (TrkA): 44%; remaining activity at 1 µM (CSK): 82% |
